SMILES strings stand for the structures. Activity calls are given as the source filed them. No cut-off for these calls is given here.

Assay [1] concerns T47D. Kind of assay: Induction of apoptosis in human T47D cells measured after 48 hrs by cell and caspase based HTS assay. The class given is functional.
Assay [2] concerns HCT-116. Kind of assay: Induction of apoptosis in human HCT116 cells measured after 48 hrs by cell and caspase based HTS assay. It is filed as functional. The following applies: HCT-116, 48 h.
For assay [3], the system named is SNU-398. Kind of assay: Induction of apoptosis in human SNU398 cells measured after 48 hrs by cell and caspase based HTS assay. It is filed as functional. The following applies: SNU-398, 48 h.
A short description of assay [4]: Inhibition of tubulin polymerization.
Assay [5] deals with T47D. Kind of assay: Growth inhibition of human T47D cells after 48 hrs. The class given is functional.
Assay [6] relates to HCT-116. Kind of assay: Growth inhibition of human HCT116 cells after 48 hrs. The class given is functional. The following applies: HCT-116, 48 h.
For assay [7], the system named is SNU-398. Kind of assay: Growth inhibition of human SNU398 cells after 48 hrs. The class given is functional. The note with it: SNU-398, 48 h.
For assay [8], the system named is T47D. Kind of assay: Cell cycle arrest in human T47D cells by accumulation at G2/M phase after 24 to 48 hrs by flow cytometry. It is filed as functional, cell-based.
Assay [9] in a line: Inhibition of tubulin polymerization up to 50 uM.

Consider `CN(C)CCOc1cccc2c1ccc1c(C#N)cc(C(=O)c3ccccc3)n12`, for which the concentration giving a half-maximal response (EC50) in assay [1] worked out at 2800 nM; in assay [2] it was 6000 nM; in [3] it was 4900 nM.

Consider `Cc1ccc2ccc3c(C#N)cc(C(=O)c4ccccc4)n3c2c1`, for which the values for the EC50 in assay [1], in assay [2] and in [3] were 280 nM, over 10000 nM and 5000 nM, respectively.

In the case of `Cc1cc2c(C#N)cc(C(=O)c3ccccc3)n2c2ccccc12`, the EC50 in assay [1] was 520 nM; in assay [2] it was 310 nM; in [3], 220 nM. The compound also displayed an IC50 in assay [4] of under 5000 nM.

In the case of `N#Cc1cc(C(=O)c2cccc([N+](=O)[O-])c2)n2c1ccc1c(Cl)cccc12`, the figures for the 50% effective concentration (EC50) in assay [1], in assay [2] and in [3] were 150 nM, over 10000 nM and over 10000 nM, respectively.

Consider `N#Cc1cc(C(=O)c2ccc(-n3ccnc3)cc2)n2c1ccc1c(Cl)cccc12`, for which the EC50 was determined as 290 nM in assay [1], 1900 nM in [2] and 1400 nM in [3].

Turning to `N#Cc1cc(C(=O)c2ccc(-n3ccnc3)cc2)n2c1ccc1ccccc12`, in assay [4], the half-inhibitory concentration (IC50) is under 5000 nM.

With `N#Cc1cc(C(=O)c2cccc(O)c2)n2c1ccc1c(Cl)cccc12`, the GI50 in assay [5] is 160 nM; in assay [6], 5900 nM; in assay [7], 2600 nM. For the same compound, the concentration giving a half-maximal response (EC50) in [1] turned out to be 280 nM; in assay [2], 2700 nM; in assay [3], 2600 nM. Moreover, in assay [8], the result was Active. Also, in assay [9], the outcome was inactive.

For the compound `N#Cc1cc(C(=O)c2ccccc2)n2c1ccc1cc(Cl)ccc12`, the half-maximal effective concentration (EC50) in [1], in [2] and in assay [3] was over 10000 nM throughout.

On to `N#Cc1cc(C(=O)c2ccccc2)n2c1ccc1c(Cl)cccc12`, for which the EC50 is 83 nM in assay [1], 1900 nM in [2] and over 10000 nM in assay [3]. In addition, the outcome in [8] was Active. For the same compound, the outcome in [9] was inactive.

In the case of `N#Cc1cc(C(=O)c2ccc([N+](=O)[O-])cc2)n2c1ccc1c(Cl)cccc12`, the half-maximal effective concentration (EC50) in assay [1] was 62 nM; in [2] it was over 10000 nM; in assay [3], over 10000 nM.

Consider `N#Cc1cc(C(=O)c2ccc(N)cc2)n2c1ccc1ccccc12`, for which the 50% inhibitory concentration (IC50) in assay [4] was under 5000 nM.

As to `COc1cccc(C(=O)c2cc(C#N)c3ccc4c(Cl)cccc4n23)c1`, the concentration for 50% growth inhibition (GI50) in assay [5] was 18 nM; in assay [6], 8600 nM; in assay [7], 4800 nM. Further, the concentration for a half-maximal effect (EC50) turned out to be 80 nM in assay [1], 3700 nM in assay [2] and 1500 nM in [3].

Take `N#Cc1cc(C(=O)c2ccc(F)cc2)n2c1ccc1c(Cl)cccc12`: the half-maximal effective concentration (EC50) in assay [1] was 53 nM; in [2], over 10000 nM; in assay [3] it was over 10000 nM. Besides, in [8], the result was Active. In addition, the outcome in assay [9] was inactive.

As for `N#Cc1cc(C(=O)c2ccccc2)n2c1ccc1c([N+](=O)[O-])cccc12`, the 50% effective concentration (EC50) in assay [1], in [2] and in [3] was over 10000 nM each time.

Consider `N#Cc1cc(C(=O)c2ccc(N)cc2)n2c1ccc1c(Cl)cccc12`, for which the half-maximal effective concentration (EC50) in assay [1] was found to be 150 nM; in assay [2] it was 3800 nM; in [3] it was 1400 nM.

As to `N#Cc1cc(C(=O)c2ccccc2)n2c1ccc1c(OCCN3CCOCC3)cccc12`, the EC50 in assay [1], in assay [2] and in [3] was over 10000 nM throughout.

On to `N#Cc1cc(C(=O)c2ccccc2)n2c1ccc1c(O)cccc12`, for which the EC50 in [1], in [2] and in assay [3] was over 10000 nM throughout.

On to `N#Cc1cc(C(=O)c2cccc(N)c2)n2c1ccc1c(Cl)cccc12`, for which the concentration for a half-maximal effect (EC50) is 210 nM in assay [1], 5600 nM in [2] and 5000 nM in assay [3].

For the compound `CC(=O)O[C@H]1C(=O)[C@@]2(C)[C@H]([C@H](OC(=O)c3ccccc3)[C@]3(O)C[C@H](OC(=O)[C@H](O)[C@@H](NC(=O)c4ccccc4)c4ccccc4)C(C)=C1C3(C)C)[C@]1(OC(C)=O)CO[C@@H]1C[C@@H]2O` [PACLITAXEL], the results for the GI50 in assay [5], in assay [6] and in [7] were 26 nM, 60 nM and 61 nM, respectively. Also, the 50% effective concentration (EC50) was 37 nM in assay [1], 18 nM in [2] and 9 nM in assay [3].

For `CC[C@]1(O)C[C@@H]2CN(CCc3c([nH]c4ccccc34)[C@@](C(=O)OC)(c3cc4c(cc3OC)N(C)[C@H]3[C@@](O)(C(=O)OC)[C@H](OC(C)=O)[C@]5(CC)C=CCN6CC[C@]43[C@@H]65)C2)C1` [VINBLASTINE], the GI50 in [5] worked out at 7 nM; in assay [6] it was 10 nM; in assay [7], 5 nM. For the same compound, the results for the EC50 in assay [1], in assay [2] and in [3] were 32 nM, 36 nM and 26 nM, respectively.

Turning to `Cc1cc2ccccc2n2c(C(=O)c3ccccc3)cc(C#N)c12`, the EC50 in assay [1] was 5800 nM; in [2] it was over 10000 nM; in assay [3] it was over 10000 nM.

With `Cc1ccc2c(ccc3c(C#N)cc(C(=O)c4ccccc4)n32)c1`, the EC50 in assay [1], in [2] and in assay [3] was over 10000 nM each time.

The values above are taken from ChEMBL document CHEMBL1136982, “Discovery of 1-benzoyl-3-cyanopyrrolo[1,2-a]quinolines as a new series of apoptosis inducers using a cell- and caspase-based high-throughput screening assay. 2: Structure-activity relationships of the 4-, 5-, 6-, 7- and 8-positions” (Bioorg Med Chem Lett, 2009).
